The target in this assay is Proto-oncogene tyrosine-protein kinase Src (Homo sapiens, UniProt P12931). In words: Binding affinity against Src SH2 domain in competitive fluorescence polarization assay.
Chain of Proto-oncogene tyrosine-protein kinase Src (P12931 2-536 limits assumed): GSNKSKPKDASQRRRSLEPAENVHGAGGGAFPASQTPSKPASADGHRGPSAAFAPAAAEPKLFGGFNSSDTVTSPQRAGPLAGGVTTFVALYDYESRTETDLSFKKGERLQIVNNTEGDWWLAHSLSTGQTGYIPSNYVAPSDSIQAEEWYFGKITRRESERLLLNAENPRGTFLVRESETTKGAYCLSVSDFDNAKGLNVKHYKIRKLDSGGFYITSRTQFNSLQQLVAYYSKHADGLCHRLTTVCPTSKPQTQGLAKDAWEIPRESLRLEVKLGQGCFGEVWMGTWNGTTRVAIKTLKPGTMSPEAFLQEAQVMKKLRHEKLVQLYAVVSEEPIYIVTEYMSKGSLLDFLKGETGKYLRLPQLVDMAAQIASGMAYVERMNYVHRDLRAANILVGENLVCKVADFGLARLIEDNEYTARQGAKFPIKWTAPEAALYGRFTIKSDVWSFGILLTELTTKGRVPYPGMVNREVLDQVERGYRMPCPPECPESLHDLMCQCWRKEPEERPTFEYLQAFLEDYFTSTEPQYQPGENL
`CC(=O)N[C@@H](Cc1ccc(OP(=O)(O)O)cc1)C(=O)N[C@@H]1CCCOc2cc(OCC3CCCCC3)c(C(N)=O)cc21`: the IC50 came to 1.6 µM.

`CC(=O)N[C@@H](Cc1ccc(OP(=O)(O)O)cc1)C(=O)N[C@@H]1CCCCc2cc(OCC3CCCCC3)c(C(N)=O)cc21` had an IC50 of 8.1 µM.

`CC(=O)N[C@@H](Cc1ccc(OP(=O)(O)O)cc1)C(=O)N[C@H]1CCCCc2cc(OCC3CCCCC3)c(C(N)=O)cc21`: the half-maximal inhibitory concentration (IC50) stood at 0.1 µM.

Take `CC[C@H](C)[C@H](NC(=O)[C@H](CCC(=O)O)NC(=O)[C@H](CCC(=O)O)NC(=O)[C@@H](N)Cc1ccc(OP(=O)(O)O)cc1)C(=O)O`: the IC50 worked out at 5.6 µM.

Molecule `CC(=O)N[C@@H](Cc1ccc(OP(=O)(O)O)cc1)C(=O)N[C@H]1CCCOc2cc(OCC3CCCCC3)c(C(N)=O)cc21` had an IC50 of 0.2 µM.

The record behind these values is ChEMBL document CHEMBL1133687, “Structure-based design of novel bicyclic nonpeptide inhibitors for the src SH2 domain” (J Med Chem, 2000).
